The structures appear in SMILES notation. A value given as a limit tells only on which side of the number the result lay.

For orientation: EC50 means the concentration that produces a half-maximal response. What is called IC50 is the midpoint of a concentration-inhibition curve. A high value points to a need for much substance.

The target of one assay is human PD-L1 (Homo sapiens (Human), UniProt Q9NZQ7). The experiment in a line: T cell activation luciferase reporter cell culture system (T Cell Activation Assay). In kind it is cell-based. The settings on record: luciferase reporter assay; PD-L1 aAPC/CHO-K1 cells with PD-1 effector Jurkat T cells. A general note: Reporter assays use an easily measured gene product as a stand-in for the process of interest.

Assay [1] concerns the target PD-L1 His protein / PD-1 Fc protein (Homo sapiens (Human), UniProt Q9NZQ7). As to the kind of experiment: HTRF Assay (PD-1/PD-L1 interaction). The class given is binding. The settings on record: PD-L1 His 6 nM, PD-1 Fc 6 nM. (In general: TR-FRET usually uses a lanthanide donor and a delayed reading to cut background.)

human PD-L1, sequence (Q9NZQ7 19-290): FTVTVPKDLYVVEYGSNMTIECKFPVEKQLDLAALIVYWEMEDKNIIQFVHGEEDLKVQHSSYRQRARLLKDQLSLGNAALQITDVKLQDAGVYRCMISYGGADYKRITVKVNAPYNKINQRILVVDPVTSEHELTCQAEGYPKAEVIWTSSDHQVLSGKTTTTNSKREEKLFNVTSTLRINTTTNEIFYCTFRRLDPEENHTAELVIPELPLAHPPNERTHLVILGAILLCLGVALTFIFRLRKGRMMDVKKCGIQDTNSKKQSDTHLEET
PD-L1 His protein / PD-1 Fc protein, sequence (Q9NZQ7 19-238): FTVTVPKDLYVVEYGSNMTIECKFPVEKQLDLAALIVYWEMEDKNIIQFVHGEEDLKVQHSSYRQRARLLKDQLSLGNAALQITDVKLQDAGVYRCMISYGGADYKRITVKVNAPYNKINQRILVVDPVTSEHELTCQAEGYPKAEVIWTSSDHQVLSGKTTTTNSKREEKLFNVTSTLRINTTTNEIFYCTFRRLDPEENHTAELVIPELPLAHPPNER

In the case of `COc1cc(-c2nccc(-c3cccc(-c4ccc(CNC5CCN(C(C)C)CC5)c(OC)n4)c3Cl)c2Cl)ccc1CNC1CCN(C(C)C)CC1` [Example 326, N-((6-(2-Chloro-3-(3-chloro-2-(4-(((1-isopropylpiperidin-4-yl)amino)methyl)-3-methoxyphenyl)pyridin-4-yl)phenyl)-2-methoxypyridin-3-yl)methyl)-1-isopropylpiperidin-4-amine], the midpoint of the response on human PD-L1, the EC50, lay at 43 nM. In addition, in assay [1], half-maximal inhibition (IC50) required 4.23 nM.
The like results for `COc1cc(-c2nccc(-c3cccc(-c4ccc(CNC5CCC(F)(F)CC5)c(OC)n4)c3Cl)c2Cl)ccc1CNC1CCC(F)(F)CC1` [Example 327, N-((6-(2-Chloro-3-(3-chloro-2-(4-(((4,4-difluorocyclohexyl)amino)methyl)-3-methoxyphenyl)pyridin-4-yl)phenyl)-2-methoxypyridin-3-yl)methyl)-4,4-difluorocyclohexan-1-amine] were, in that order, 178 nM and 1.7 nM.
In turn, `COc1cc(-c2nccc(-c3cccc(-c4ccc(CNC5CCN(CCO)CC5)c(OC)n4)c3Cl)c2Cl)ccc1CNC1CCN(CCO)CC1` [Example 328, 2-(4-(((6-(2-Chloro-3-(3-chloro-2-(4-(((1-(2-hydroxyethyl)piperidin-4-yl)amino)methyl)-3-methoxyphenyl)pyridin-4-yl)phenyl)-2-methoxypyridin-3-yl)methyl)amino)piperidin-1-yl)ethan-1-ol] showed a concentration for a half-maximal effect (EC50) at human PD-L1 of 28.1 nM. In assay [1], this compound yielded a 50% inhibitory concentration (IC50) of 1.52 nM.
Take `CCC(=O)N1CCC(NCc2ccc(-c3cccc(-c4ccnc(-c5cc(F)c(CNC6CCN(C(=O)CC)CC6)c(OC)c5)c4Cl)c3Cl)nc2OC)CC1` [Example 331, 1-(4-(((6-(2-Chloro-3-(3-chloro-2-(3-fluoro-5-methoxy-4-(((1-propionylpiperidin-4-yl)amino)methyl)phenyl)pyridin-4-yl)phenyl)-2-methoxypyridin-3-yl)methyl)amino)piperidin-1-yl)propan-1-one]: at human PD-L1, the EC50 was determined as 17 nM. In assay [1], this compound yielded an IC50 of 23.6 nM.
The compound `COc1cc(-c2nccc(-c3cccc(-c4ccc(CN5CC6(CNC(=O)C6)C5)c(OC)n4)c3Cl)c2Cl)ccc1CNC1CCN(C(C)=O)CC1` [Example 332, 2-((6-(3-(2-(4-(((1-acetylpiperidin-4-yl)amino)methyl)-3-methoxyphenyl)-3-chloropyridin-4-yl)-2-chlorophenyl)-2-methoxypyridin-3-yl)methyl)-2,6-diazaspiro[3.4]octan-7-one] had an EC50 on human PD-L1 of 12.4 nM. Moreover, the IC50 in assay [1] worked out at 1.8 nM.
With `COc1cc(-c2nccc(-c3cccc(-c4ccc(CNC5CCN(C(C)=O)CC5)c(OC)n4)c3Cl)c2F)ccc1CNC1CCN(C(C)=O)CC1` [Example 337, 1-(4-(((6-(3-(2-(4-(((1-Acetylpiperidin-4-yl)amino)methyl)-3-methoxyphenyl)-3-fluoropyridin-4-yl)-2-chlorophenyl)-2-methoxypyridin-3-yl)methyl)amino)piperidin-1-yl)ethan-1-one], the EC50 on human PD-L1 stood at 62 nM. The concentration for half-maximal inhibition (IC50) in assay [1] turned out to be 0.3 nM.
`COc1cc(-c2nccc(-c3cccc(-c4ccc(CNC5CCN(C(C)=O)CC5)c(OC)n4)c3Cl)c2Cl)ccc1CN[C@@H]1COC(=O)C1` [Example 338, (S)-4-((4-(4-(3-(5-(((1-Acetylpiperidin-4-yl)amino)methyl)-6-methoxypyridin-2-yl)-2-chlorophenyl)-3-chloropyridin-2-yl)-2-methoxybenzyl)amino)dihydrofuran-2(3H)-one]: the EC50 at human PD-L1 worked out at 96.3 nM. This compound displayed a concentration for half-maximal inhibition (IC50) in assay [1] of 0.17 nM.
Turning to `COC(=O)C[C@@H](CO)NCc1ccc(-c2nccc(-c3cccc(-c4ccc(CNC5CCN(C(C)=O)CC5)c(OC)n4)c3Cl)c2Cl)cc1OC` [Example 339, Methyl (S)-3-((4-(4-(3-(5-(((1-acetylpiperidin-4-yl)amino)methyl)-6-methoxypyridin-2-yl)-2-chlorophenyl)-3-chloropyridin-2-yl)-2-methoxybenzyl)amino)-4-hydroxybutanoate], at human PD-L1, a half-maximal effect (EC50) was put at 97.6 nM. The same compound gave an IC50 in assay [1] of 0.12 nM.
In turn, `COc1cc(-c2nccc(-c3cccc(-c4ccc(CNC5CCN(C(C)=O)CC5)c(OC)n4)c3Cl)c2Cl)ccc1CN[C@H]1CCOC1=O` [Example 340, (S)-3-((4-(4-(3-(5-(((1-Acetylpiperidin-4-yl)amino)methyl)-6-methoxypyridin-2-yl)-2-chlorophenyl)-3-chloropyridin-2-yl)-2-methoxybenzyl)amino)dihydrofuran-2(3H)-one] yielded an EC50 on human PD-L1 of 523 nM. This compound displayed a concentration for half-maximal inhibition (IC50) in assay [1] of 0.1 nM.
Turning to `COc1cc(-c2nccc(-c3cccc(-c4ccc(CN5CCC(NC(C)=O)CC5)c(OC)n4)c3Cl)c2Cl)ccc1CNC1CCN(C(C)=O)CC1` [Example 341, N-(1-((6-(3-(2-(4-(((1-acetylpiperidin-4-yl)amino)methyl)-3-methoxyphenyl)-3-chloropyridin-4-yl)-2-chlorophenyl)-2-methoxypyridin-3-yl)methyl)piperidin-4-yl)acetamide], the EC50 at human PD-L1 was 22.6 nM. In assay [1], the half-maximal inhibitory concentration (IC50) worked out at 1.14 nM.
As for `COc1cc(-c2nccc(-c3cccc(-c4ccc(CNC5CCN(C(C)=O)CC5)c(OC)n4)c3Cl)c2Cl)ccc1CN[C@H](CO)CC(=O)O` [Example 342, (S)-3-((4-(4-(3-(5-(((1-Acetylpiperidin-4-yl)amino)methyl)-6-methoxypyridin-2-yl)-2-chlorophenyl)-3-chloropyridin-2-yl)-2-methoxybenzyl)amino)-4-hydroxybutanoic acid], a half-maximal effect at human PD-L1 (EC50) was put at 339 nM. In assay [1], this compound yielded an IC50 of 0.08 nM.
Turning to `COc1cc(-c2nccc(-c3cccc(-c4ccc(CNC5CCN(C(C)=O)CC5)c(OC)n4)c3Cl)c2Cl)ccc1CN[C@@H](CCO)C(=O)O` [Example 343, (4-(4-(3-(5-(((1-Acetylpiperidin-4-yl)amino)methyl)-6-methoxypyridin-2-yl)-2-chlorophenyl)-3-chloropyridin-2-yl)-2-methoxybenzyl)-L-homoserine], on human PD-L1, the EC50 was found to be 248 nM. In assay [1], this compound returned a half-inhibitory concentration (IC50) of 0.09 nM.
`CCC(=O)N1CCC(NCc2ccc(-c3nccc(-c4cccc(-c5ccc(CNC6CCN(C(=O)CC)CC6)c(OC)n5)c4Cl)c3Cl)cc2OC)CC1` [Example 344, 1-(4-(((6-(2-Chloro-3-(3-chloro-2-(3-methoxy-4-(((1-propionylpiperidin-4-yl)amino)methyl)phenyl)pyridin-4-yl)phenyl)-2-methoxypyridin-3-yl)methyl)amino)piperidin-1-yl)propan-1-one] came in with an EC50 on human PD-L1 of 14.9 nM. The compound further had an IC50 in assay [1] of 6.41 nM.
In the case of `COc1cc(-c2nccc(-c3cccc(-c4ccc(CN5CCC6(CC5)CC(=O)N6)c(OC)n4)c3Cl)c2Cl)ccc1CN1CCC2(CC1)CC(=O)N2` [Example 353, 7-((6-(2-Chloro-3-(3-chloro-2-(3-methoxy-4-((2-oxo-1,7-diazaspiro[3.5]nonan-7-yl)methyl)phenyl)pyridin-4-yl)phenyl)-2-methoxypyridin-3-yl)methyl)-1,7-diazaspiro[3.5]nonan-2-one], the EC50 on human PD-L1 is at least 10000 nM. The compound further gave a 50% inhibitory concentration (IC50) in assay [1] of 0.16 nM.
At human PD-L1, `COc1cc(-c2nccc(-c3cccc(-c4ccc(CN5CCC(NC(C)=O)CC5)c(OC)n4)c3Cl)c2Cl)ccc1CN1CC2(CNC(=O)C2)C1` [Example 355, N-(1-((6-(2-Chloro-3-(3-chloro-2-(3-methoxy-4-((7-oxo-2,6-diazaspiro[3.4]octan-2-yl)methyl)phenyl)pyridin-4-yl)phenyl)-2-methoxypyridin-3-yl)methyl)piperidin-4-yl)acetamide] displayed an EC50 of 28.7 nM. In assay [1], 1.27 nM corresponded to half-maximal inhibition (IC50).
In the same order, the values of `COc1cc(-c2nccc(-c3cccc(-c4ccc(CNCCCNC(C)=O)c(OC)n4)c3Cl)c2Cl)ccc1CNCCCNC(C)=O` [Example 358, N-(3-(((6-(3-(2-(4-(((3-Acetamidopropyl)amino)methyl)-3-methoxyphenyl)-3-chloropyridin-4-yl)-2-chlorophenyl)-2-methoxypyridin-3-yl)methyl)amino)propyl) acetamide] are 64.4 nM and 0.12 nM.
Consider `COc1cc(-c2nccc(-c3cccc(-c4ccc(CNC5CCN(C(C)=O)CC5)c(OC)n4)c3Cl)c2Cl)ccc1CN1CC2(COC2)C1` [Example 380, 1-(4-(((6-(3-(2-(4-((2-Oxa-6-azaspiro[3.3]heptan-6-yl)methyl)-3-methoxyphenyl)-3-chloropyridin-4-yl)-2-chlorophenyl)-2-methoxypyridin-3-yl)methyl)amino)piperidin-1-yl)ethan-1-one], for which it took 20.5 nM to reach a half-maximal effect at human PD-L1 (EC50). In assay [1], the IC50 is 1.43 nM.
`COc1cc(-c2nccc(-c3cccc(-c4ccc(CNC5CCN(C(C)=O)CC5)c(OC)n4)c3Cl)c2Cl)ccc1CNC1CC(C)(C)C1` [Example 381, 1-(4-(((6-(2-Chloro-3-(3-chloro-2-(4-(((3,3-dimethylcyclobutyl)amino)methyl)-3-methoxyphenyl)pyridin-4-yl)phenyl)-2-methoxypyridin-3-yl)methyl)amino)piperidin-1-yl)ethan-1-one] had an EC50 on human PD-L1 of 53.3 nM. This compound had a concentration for half-maximal inhibition (IC50) in assay [1] of 0.184 nM.
`COc1cc(-c2nccc(-c3cccc(-c4ccc(CNC5CCN(C(C)=O)CC5)c(OC)n4)c3Cl)c2Cl)ccc1CNC1CCN(S(C)(=O)=O)CC1` [Example 383, 1-(4-(((6-(2-Chloro-3-(3-chloro-2-(3-methoxy-4-(((1-(methylsulfonyl)piperidin-4-yl)amino)methyl)phenyl)pyridin-4-yl)phenyl)-2-methoxypyridin-3-yl)methyl)amino)piperidin-1-yl)ethan-1-one] registered an EC50 on human PD-L1 of 14.4 nM. Moreover, the concentration for half-maximal inhibition (IC50) in assay [1] was determined as 0.998 nM.
Regarding `COc1cc(-c2nccc(-c3cccc(-c4ccc(CN5CC(C)(O)C5)c(OC)n4)c3Cl)c2Cl)ccc1CN1CC(C)(O)C1` [Example 396, 1-((6-(2-Chloro-3-(3-chloro-2-(4-((3-hydroxy-3-methylazetidin-1-yl)methyl)-3-methoxyphenyl)pyridin-4-yl)phenyl)-2-methoxypyridin-3-yl)methyl)-3-methylazetidin-3-ol], the EC50 on human PD-L1 turned out to be 15.3 nM. Further, the midpoint of inhibition in assay [1], the IC50, lay at 1.38 nM.

The values above are taken from US20240246964A1 (Arbutus Biopharma Corporation, priority 2021, published 2024).
